US20240425479A1, “HALO-SUBSTITUTED AMINO AZA-HETEROARYL COMPOUNDS AS INHIBITORS OF THE HAEMATOPOIETIC PROGENITOR KINASE 1 (HPK1)” (priority 2021, published 2024)

These compounds were tested against T1, Recombinant (1-346) HPK1 (h) (Homo sapiens, UniProt Q92918) (assay: HPK1 human STE kinase enzymatic radiometric assay). Settings: read-out: HPK1 IC50 nM Range.
T1 construct: Recombinant (1-346) HPK1 (h) is incubated with 8 mM MOPS pH 7.0
T1 sequence (Q92918 1-346): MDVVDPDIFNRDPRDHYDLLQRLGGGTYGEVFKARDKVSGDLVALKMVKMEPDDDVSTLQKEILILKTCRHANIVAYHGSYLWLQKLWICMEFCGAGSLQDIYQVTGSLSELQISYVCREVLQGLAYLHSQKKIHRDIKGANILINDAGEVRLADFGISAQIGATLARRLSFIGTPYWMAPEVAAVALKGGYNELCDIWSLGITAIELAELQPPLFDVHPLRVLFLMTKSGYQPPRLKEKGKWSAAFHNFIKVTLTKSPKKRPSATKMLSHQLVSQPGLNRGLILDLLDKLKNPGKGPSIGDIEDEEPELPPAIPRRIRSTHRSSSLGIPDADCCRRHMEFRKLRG
Type: biochemical
Protocol: (a) HPK1 Human STE Kinase Enzymatic Radiometric Assay
A stock solution of 10 mM of test compound is prepared in DMSO. The compound plate was prepared by 3-fold and 9-point serial dilutions. Recombinant (1-346) HPK1 (h) is incubated with 8 mM MOPS pH 7.0, 0.2 mM EDTA, 0.33 mg/mL myelin basic protein, 10 mM MgAcetate and [gamma-33P]-ATP (specific activity and concentration as required). The reaction is initiated by the addition of the Mg/ATP mix. After incubation for 40 minutes at RT, the reaction is stopped by the addition of phosphoric acid to a concentration of 0.5%, 10 μL of the reaction is then spotted onto a P30 filtermat and washed four times for 4 minutes in 0.425% phosphoric acid and once in methanol prior to drying and scintillation counting. For more details of kinase assay protocols, see: Gao, Y. et. al.; Biochem J.451 (2): 313-328, 2013.

SMILES | IC50 [nM]
Nc1nc(F)c(-c2ccc(C3CCOCC3)c(CN3CCCC3)c2)nc1-c1ccc2c(=O)[nH]cc(F)c2c1 [Example I-207, 6-(3-amino-5-fluoro-6-(3-(pyrrolidin-1-ylmethyl)-4-(tetrahydro-2H-pyran-4-yl)phenyl)pyrazin-2-yl)-4-fluoroisoquinolin-1(2H)-one] | 0.1 to 10
COC1CCN(Cc2cc(-c3nc(-c4ccc5c(c4)CCNC5=O)c(N)nc3F)ccc2C2CCOCC2)CC1 [Example I-131, 6-(3-amino-5-fluoro-6-(3-((4-methoxypiperidin-1-yl)methyl)-4-(tetrahydro-2H-pyran-4-yl)phenyl)pyrazin-2-yl)-3,4-dihydroisoquinolin-1(2H)-one] | 11 to 100
Cc1[nH]c(=O)c2ccc(-c3nc(-c4ccc(N5CCN(CC6CC6)CC5)cc4)c(F)nc3N)cc2c1Cl [Example I-122, 6-(3-amino-6-(4-(4-(cyclopropylmethyl)piperazin-1-yl)phenyl)-5-fluoropyrazin-2-yl)-4-chloro-3-methylisoquinolin-1(2H)-one] | 0.1 to 10
COC1CN(Cc2cc(-c3nc(-c4cc(F)c5c(c4)CCNC5=O)c(N)nc3F)ccc2C2CCOCC2)C1 [Example I-191, 6-(3-amino-5-fluoro-6-(3-((3-methoxyazetidin-1-yl)methyl)-4-(tetrahydro-2H-pyran-4-yl)phenyl)pyrazin-2-yl)-8-fluoro-3,4-dihydroisoquinolin-1(2H)-one] | 0.1 to 10
C[C@H]1CN(c2ccc(-c3nc(-c4ccc5c(c4)CCNC5=O)c(N)nc3F)cc2CN(C)C)CCO1 [Example I-211, (S)-6-(3-amino-6-(3-((dimethylamino)methyl)-4-(2-methylmorpholino)phenyl)-5-fluoropyrazin-2-yl)-3,4-dihydroisoquinolin-1(2H)-one] | 0.1 to 10
CC(C)N1CCN(c2ccc(-c3nc(-c4cc5c(F)c[nH]c(=O)c5cc4F)c(N)nc3F)cc2)CC1 [Example I-140, 6-(3-amino-5-fluoro-6-(4-(4-isopropylpiperazin-1-yl)phenyl)pyrazin-2-yl)-4,7-difluoroisoquinolin-1(2H)-one] | 0.1 to 10
Cc1c[nH]c(=O)c2ccc(-c3nc(-c4ccc(O)c(C(C)N(C)C)c4)c(F)nc3N)cc12 (centres unmarked) [Example I-304, 6-(3-amino-6-(3-(1-(dimethylamino)ethyl)-4-hydroxyphenyl)-5-fluoropyrazin-2-yl)-4-methylisoquinolin-1(2H)-one] | 0.1 to 10
Nc1nc(F)c(-c2ccc(N3CCN(CCCC(F)F)CC3)cc2)nc1-c1cc2c(cc1F)C(=O)NCC2 [Example I-69, 6-(3-amino-6-(4-(4-(4,4-difluorobutyl)piperazin-1-yl)phenyl)-5-fluoropyrazin-2-yl)-7-fluoro-3,4-dihydroisoquinolin-1(2H)-one] | 0.1 to 10
Cc1[nH]c(=O)c2c(F)cc(-c3nc(-c4ccc(N5CCN(CC6CC6)CC5)cc4)c(F)nc3N)cc2c1F [Example I-115, 6-(3-amino-6-(4-(4-(cyclopropylmethyl)piperazin-1-yl)phenyl)-5-fluoropyrazin-2-yl)-4,8-difluoro-3-methylisoquinolin-1(2H)-one] | 0.1 to 10
Cc1[nH]c(=O)c2c(F)cc(-c3nc(-c4ccc(N5CCOCC5)c(CN(C)C)c4)c(F)nc3N)cc2c1F [Example I-116, 6-(3-amino-6-(3-((dimethylamino)methyl)-4-morpholinophenyl)-5-fluoropyrazin-2-yl)-4,8-difluoro-3-methylisoquinolin-1(2H)-one] | 0.1 to 10
Cc1[nH]c(=O)c2ccc(-c3nc(-c4ccc(N5CCOCC5)c(CN(C)C)c4)c(F)nc3N)cc2c1Cl [Example I-124, 6-(3-amino-6-(3-((dimethylamino)methyl)-4-morpholinophenyl)-5-fluoropyrazin-2-yl)-4-chloro-3-methylisoquinolin-1(2H)-one] | 0.1 to 10
Nc1nc(F)c(-c2ccc(N3CCN(C4CCC4)CC3)cc2)nc1-c1ccc2c(c1)CCNC2=O [Example I-49, 6-(3-amino-6-(4-(4-cyclobutylpiperazin-1-yl)phenyl)-5-fluoropyrazin-2-yl)-3,4-dihydroisoquinolin-1(2H)-one] | 0.1 to 10
CCN(C)Cc1c(N2CCOCC2)ccc(-c2nc(-c3cc(F)c4c(c3)CCNC4=O)c(N)nc2F)c1F [Example I-247, 6-(3-amino-6-(3-((ethyl(methyl)amino)methyl)-2-fluoro-4-morpholinophenyl)-5-fluoropyrazin-2-yl)-8-fluoro-3,4-dihydroisoquinolin-1(2H)-one] | 11 to 100
Nc1nc(F)c(-c2ccc(C3CCOCC3)c(CN3CCC3)c2)nc1-c1ccc2c(=O)[nH]cc(F)c2c1 [Example I-204, 6-(3-amino-6-(3-(azetidin-1-ylmethyl)-4-(tetrahydro-2H-pyran-4-yl)phenyl)-5-fluoropyrazin-2-yl)-4-fluoroisoquinolin-1(2H)-one] | 0.1 to 10
COC1CCN(Cc2cc(-c3nc(-c4cc5c(cc4F)C(=O)NCC5)c(N)nc3F)ccc2N2CCOCC2)C1 (centres unmarked) [Example I-134, 6-(3-amino-5-fluoro-6-(3-((3-methoxypyrrolidin-1-yl)methyl)-4-morpholinophenyl)pyrazin-2-yl)-7-fluoro-3,4-dihydroisoquinolin-1(2H)-one] | 0.1 to 10
CCN(C)Cc1c(N2CCOCC2)ccc(-c2nc(-c3cc4c(cc3F)C(=O)NCC4)c(N)nc2F)c1F [Example I-246, 6-(3-amino-6-(3-((ethyl(methyl)amino)methyl)-2-fluoro-4-morpholinophenyl)-5-fluoropyrazin-2-yl)-7-fluoro-3,4-dihydroisoquinolin-1(2H)-one] | 11 to 100
Cc1c[nH]c(=O)c2ccc(-c3nc(-c4ccc5c(c4)[C@H](N(C)C)CCO5)c(F)nc3N)cc12 [Example I-285, (R)-6-(3-amino-6-(4-(dimethylamino)chroman-6-yl)-5-fluoropyrazin-2-yl)-4-methylisoquinolin-1(2H)-one] | 0.1 to 10
Cc1c[nH]c(=O)c2ccc(-c3nc(-c4ccc(N5CCN(C6CCC6)CC5)cc4)c(F)nc3N)cc12 [Example I-139, 6-(3-amino-6-(4-(4-cyclobutylpiperazin-1-yl)phenyl)-5-fluoropyrazin-2-yl)-4-methylisoquinolin-1(2H)-one] | 0.1 to 10

Second part, the compound after the results:

IC50 [nM] | SMILES
11 to 100 | CN(C)Cc1c(N2CCOCC2)ccc(-c2nc(-c3cc4c(cc3F)C(=O)NCC4)c(N)nc2F)c1F [Example I-241, 6-(3-amino-6-(3-((dimethylamino)methyl)-2-fluoro-4-morpholinophenyl)-5-fluoropyrazin-2-yl)-7-fluoro-3,4-dihydroisoquinolin-1(2H)-one]
0.1 to 10 | Nc1nc(F)c(-c2ccc(N3CCOCC3)c(CN3CCC3)c2)nc1-c1ccc2c(=O)[nH]cc(F)c2c1 [Example I-199, 6-(3-amino-6-(3-(azetidin-1-ylmethyl)-4-morpholinophenyl)-5-fluoropyrazin-2-yl)-4-fluoroisoquinolin-1(2H)-one]
0.1 to 10 | Cc1c[nH]c(=O)c2ccc(-c3nc(-c4ccc(N5CCN(CCCC(F)F)CC5)cc4)c(F)nc3N)cc12 [Example I-73, 6-(3-amino-6-(4-(4-(4,4-difluorobutyl)piperazin-1-yl)phenyl)-5-fluoropyrazin-2-yl)-4-methylisoquinolin-1(2H)-one]
11 to 100 | C[C@H]1CN(c2ccc(-c3nc(-c4cc(F)c5c(c4)CCNC5=O)c(N)nc3F)cc2CN2CCC2)CCO1 [Example I-216, (S)-6-(3-amino-6-(3-(azetidin-1-ylmethyl)-4-(2-methylmorpholino)phenyl)-5-fluoropyrazin-2-yl)-8-fluoro-3,4-dihydroisoquinolin-1(2H)-one]
11 to 100 | CC1NC(=O)c2c(F)cc(-c3nc(-c4ccc([C@]56C[C@H]5CN(C)C6)cc4)c(F)nc3N)cc2C1(F)F (stereo partly drawn) [Example I-135, 6-(3-amino-5-fluoro-6-(4-((1S,5R)-3-methyl-3-azabicyclo[3.1.0]hexan-1-yl)phenyl)pyrazin-2-yl)-4,4,8-trifluoro-3-methyl-3,4-dihydroisoquinolin-1(2H)-one]
0.1 to 10 | Cc1cc(-c2nc(-c3cc(F)c4c(c3)CCNC4=O)c(N)nc2F)ccc1C1CCOCC1 [Example I-221, 6-(3-amino-5-fluoro-6-(3-methyl-4-(tetrahydro-2H-pyran-4-yl)phenyl)pyrazin-2-yl)-8-fluoro-3,4-dihydroisoquinolin-1(2H)-one]
0.1 to 10 | C[C@@H]1CN(c2ccc(-c3nc(-c4ccc5c(c4)CCNC5=O)c(N)nc3F)cc2)C[C@H](C)N1C [Example I-57, 6-(3-amino-5-fluoro-6-(4-((3R,5S)-3,4,5-trimethylpiperazin-1-yl)phenyl)pyrazin-2-yl)-3,4-dihydroisoquinolin-1(2H)-one]
0.1 to 10 | CN(C)Cc1cc(-c2nc(-c3ccc4c(=O)[nH]cc(F)c4c3)c(N)nc2F)cc2c1OCCO2 [Example I-269, 6-(3-amino-6-(8-((dimethylamino)methyl)-2,3-dihydrobenzo[b][1,4]dioxin-6-yl)-5-fluoropyrazin-2-yl)-4-fluoroisoquinolin-1(2H)-one]
